The source of these data is PubChem BioAssay AID1963825 (Molecular Pharmacology Branch, DTP, NCI, 2024).

Where “and” joins values, the source holds several entries; their conditions need not be identical. Identical values can stand only once. Some results are limits rather than exact numbers.

The assay is described as follows: Anticancer human tumor 997537-175-T-J1-PDC patient-derived colon adenocarcinoma cell line growth inhibition [POLQ]. The conditions noted are these: 997537-175-T-J1-PDC complex spheroid viability, combination with POLQ inhibitors; for viability, T/C: stronger effect = lower value. As to the method: Multicellular complex tumor spheroid response to Polymerase (POL) inhibitors (novobiocin, ART-558, RP6685) in combination with a variety of drugs and investigational agents in selected tumor cell lines
The POL inhibitors (novobiocin, ART-558, and RP6685) were evaluated both individually and in combination with standard of care and investigational anticancer small molecules within a complex spheroid model of solid tumors. . Complex spheroids include a stromal component modeled by human endothelial cells (HUVEC) and fibroblasts modeled by human mesenchymal stem cells (MSCs). The concentration ranges selected for each drug and investigational agent were based upon clinically achievable concentrations if the clinical Cmax of the agent was known.
Compounds. The drugs and investigational agents: novobiocin (NSC847541), ART-558 (NSC835418), RP-6685 (NSC848927), peposertib (NSC802822), ceralasertib (NSC780249), elimusertib (NSC800525), camonsertib (NSC841442), AZD-1390 (NSC803789), olaparib (NSC753686), talazoparib (NSC767125), rucaparib (NSC756644), sotorasib (NSC818433), MRTX-1133 (NSC836407), SN-38 (NSC673596), topotecan (NSC609699), epotoside (NSC141540), doxorubicin (NSC123127), gemcitabine (NSC613327), 5-fluorouracil (NSC19893), paclitaxel (NSC125973), vemurafenib (NSC761431), MSA-2 (NSC828583), SN-011 (NSC837082), adavosertib (NSC754352), prexasertib (NSC758257), carboplatin (NSC241240) and oxaliplatin (NSC266046), were obtained from the National Cancer Institute (NCI) Developmental Therapeutics Program Chemical Repository (21). The FDA-approved anticancer drug set is available from the Developmental Therapeutics Program at https://dtp.cancer.gov/organization/dscb/obtaining/. […] The stock solutions were prepared in dimethyl sulfoxide (DMSO, Sigma-Aldrich, St. Louis, MO, cat. D2650), except for the platinum compounds which were prepared in saline (Quality Biological, Gaithersburg, MD, cat. 114-055-101), at 800-fold the tested concentration and stored at -70 degrees C prior to their use. All drugs and investigational agents were tested over a range starting from a high concentration at or near the clinical Cmax and decreasing in half-log increments. If the clinical Cmax for an agent had not been determined, the highest concentration tested was 10 microM, except for SN-38, which was tested at a high concentration of 1 microM.
Cell Culture. All cells were maintained in an incubator at 37 degrees C and 5% CO2 with 95% humidity. The PDC lines were cultured according to standard operating procedures established by the NCI PDMR (https://pdmr.cancer.gov). Table 3 of the manuscript, lists the cell lines along with the number of the three cell types plated to form the mct-spheroids and media for tumor cell growth. After thawing, all PDC lines, except 997537-175-T-J1-PDC and 415267-285-R-J2-PDC, were cultured in Matrigel-coated flasks prepared with a working solution of 1X Ham's F-12 nutrient mix, without supplementation (Thermo Fisher Scientific, cat. 11765054), 100 U/mL penicillin-streptomycin (Thermo Fisher Scientific, cat. 15140122), and 2.5% Matrigel (Corning Inc., Corning, NY, cat. 354248) for the first three passages. The two PDC lines 997537-175-T-J1-PDC and 415267-285-R-J2-PDC were cultured on uncoated flasks. The 857933-349-R-J2-PDC line was cultured in 6C/Colon 1B media containing advanced DMEM/F-12 (Thermo Fisher Scientific, cat. 12634028), 10 mM HEPES (Thermo Fisher Scientific, cat. 15630080), 1X GlutaMAX supplement (Thermo Fisher Scientific, cat. 35050061), 0.1 mg/mL primocin (InvivoGen, San Diego, CA, cat. ant-pm-2), 10% defined fetal bovine serum, heat inactivated (HyClone Laboratories Inc., Logan, UT, cat. SH30070.03HI), 50% L-WRN conditioned media (ATCC, cat. CRL-3276), 1.25 mM N-Acetyl-L-cysteine (Sigma-Aldrich, cat. A9165), 10 mM nicotinamide (Sigma-Aldrich, cat. N0636), 1X B-27 supplement (Thermo Fisher Scientific, cat. 17504044), 1X N-2 supplement (Thermo Fisher Scientific, cat. […]
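Note: luminescence signal used as a surrogate for viable cells; spheroids exposed to drugs for seven days before readout.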

Consider `C#Cc1c(F)ccc2cc(O)cc(-c3ncc4c(N5CC6CCC(C5)N6)nc(OCC56CCCN5CC(F)C6)nc4c3F)c12` (stereo unspecified), for which the viability, T/C reads like this: (compound 0.0316 µM) 105% and 99.2% and 101%; (compound 0.1 µM) 106% and 111% and 92.5%; (compound 0.316 µM) 92.2% and 97.5% and 113%; (compound 1 µM) 105% and 93.2% and 113%; (compound 3.16 µM) 110% and 93.3% and 94.4%; (compound 10 µM) 106% and 94.6% and 107%. Further, the half-inhibitory concentration (IC50) (curve of compound) is > 10 µM.
In the case of `C=CC(=O)N1CCN(c2nc(=O)n(-c3c(C)ccnc3C(C)C)c3nc(-c4c(O)cccc4F)c(F)cc23)C(C)C1` (stereo unspecified), the viability, T/C is, setting by setting: (compound 0.0316 µM) 88.3% and 103% and 94.8%; (compound 0.1 µM) 92.3% and 93.2% and 91.2%; (compound 0.316 µM) 92.7% and 102% and 101%; (compound 1 µM) 99.6% and 91.8% and 112%; (compound 3.16 µM) 103% (2×) and 104%; (compound 10 µM) 101% and 89.6% and 87.3%. Further, the IC50 (curve of compound) was > 10 µM.
Turning to `CC(C)n1c(=O)n(C)c2cnc3cc(F)c(-c4ccc(OCCCN5CCCCC5)nc4)cc3c21`, the viability, T/C is, setting by setting: (compound 0.0316 µM) 90.1% and 93% and 37.9%; (compound 0.1 µM) 103% and 96% and 38.9%; (compound 0.316 µM) 100% and 83.5% and 34.2%; (compound 1 µM) 97.9% and 102% and 32.9%; (compound 3.16 µM) 85.7% and 92.1% and 37.8%; (compound 10 µM) 73.3% and 87.2% and 43.2%.
`CC1COCCN1c1cc(C2(O)CC3CCC(C2)O3)c2cnn(-c3ccn[nH]3)c2n1` (stereo unspecified): the viability, T/C is, setting by setting: (compound 0.0316 µM) 80.8% and 88.2% and 99.8%; (compound 0.1 µM) 88.8% and 81.9% and 65.3%; (compound 0.316 µM) 57.4% and 42.1% and 58.8%; (compound 1 µM) 49% and 58.5% and 56.2%; (compound 3.16 µM) 61.2% and 67.5% and 61.5%; (compound 10 µM) 62.1% and 47.6% and 48.3%. For the same molecule, where the note is “curve of compound”, the IC50 is > 10 µM.
With `CCc1cc2c(N3CCc4c(cc(Cn5ccnc5)cc4-c4cn(C)nc4C(F)(F)F)C3=O)cc(C)nc2c(OC)n1`, the viability, T/C (compound 0.0316 µM) was 90.5% and 98.7% and 107%; the viability, T/C (compound 0.1 µM) is 95.7% and 82% and 107%; the viability, T/C (compound 0.316 µM) is 90.7% and 71.5% and 94.3%; the viability, T/C (compound 1 µM) was 78.7% and 91.3% and 92.2%; the viability, T/C (compound 3.16 µM) is 69.9% and 86.2% and 67.7%; the viability, T/C (compound 10 µM) is 58% and 61.9% and 41.5%. Besides, the IC50 (curve of compound) was > 10 µM and 6.97 µM.
For `CCc1cc2c(N3CCc4c(cc(Cn5ccnc5)cc4-c4cn(C)nc4C(F)(F)F)C3=O)ccnc2c(OC)n1`, the viability, T/C (compound 0.0316 µM) was 95.3% and 92.8% and 103%; the viability, T/C (compound 0.1 µM) was 79.7% and 104% and 98.2%; the viability, T/C (compound 0.316 µM) was 98.5% and 76.2% and 96.9%; the viability, T/C (compound 1 µM) is 84.6% and 90.4% and 91.4%; the viability, T/C (compound 3.16 µM) was 76.5% and 68.3% and 72.7%; the viability, T/C (compound 10 µM) is 57.5% and 79.9% and 53.8%. Besides, for the setting “curve of compound”, the IC50 is > 10 µM.
With `COC1C(OC(N)=O)C(O)C(Oc2ccc3c(O)c(NC(=O)c4ccc(O)c(CC=C(C)C)c4)c(=O)oc3c2C)OC1(C)C` (stereo unspecified), the viability, T/C (compound 0.1 µM) is 97.2% [middle of 13 runs]; the viability, T/C (compound 0.316 µM) was 97.4% [middle of 13 runs]; the viability, T/C (compound 1 µM) was 95.6% [middle of 13 runs]. In addition, the 50% inhibitory concentration (IC50) (compound alone, run of 11/27/2023) is > 10 µM.
On to `COc1cc2cc(C(=O)CCC(=O)O)sc2cc1OC`, for which the viability, T/C (compound 0.0316 µM) is 102% and 105% and 95.7%; the viability, T/C (compound 0.1 µM) is 99% and 93.1% and 94.9%; the viability, T/C (compound 0.316 µM) is 85.6% and 113% and 104%; the viability, T/C (compound 1 µM) was 107% and 89.6% and 100%; the viability, T/C (compound 3.16 µM) was 106% and 100% and 91.6%; the viability, T/C (compound 10 µM) is 98.2% and 83.3% and 99.8%. Further, the IC50 (curve of compound) is > 10 µM.
Regarding `COc1ccc([C@@H](O)c2cc(-c3ncnc4cc(N5CCOCC5)ccc34)c(F)cc2Cl)nn1`, the viability, T/C (compound 0.0316 µM) was 107% and 102% and 108%; the viability, T/C (compound 0.1 µM) is 103% and 94.5% and 93.7%; the viability, T/C (compound 0.316 µM) was 90.6% and 96.5% and 106%; the viability, T/C (compound 1 µM) is 100% and 105% and 104%; the viability, T/C (compound 3.16 µM) is 94.8% and 87.4% and 97.1%; the viability, T/C (compound 10 µM) is 83.2% and 80.4% and 92%. The IC50 (curve of compound) is > 10 µM.
Regarding `O=C(Nc1ccc(O)c(NS(=O)(=O)c2ccc(F)cc2)c1)c1ccc(-c2ccccc2)cc1`, the viability, T/C is 103% and 89.4% and 123% (compound 0.0316 µM); 101% and 92.4% and 98.4% (compound 0.1 µM); 113% and 97.4% and 81.8% (compound 0.316 µM); 88.3% and 109% and 103% (compound 1 µM); 99.2% and 116% and 91.7% (compound 3.16 µM); 98.9% and 103% and 91.2% (compound 10 µM). In addition, the IC50 (curve of compound) was > 10 µM.
